Reference: the supplement of paper PMC10307832

What was measured:
Experiment in all cases: relative viability (nuclei count vs DMSO), 5 days (fraction); higher = more cells survive
XMD8-85 + Palbociclib = compound: CN1CCN(CC1)C2=CC(=C(C=C2)NC3=NC=C4C(=N3)N(C5=CC=CC=C5C(=O)N4C)C)OC [XMD8-85] + CC(=O)c1c(C)c2cnc(Nc3ccc(N4CCNCC4)cn3)nc2n(C2CCCC2)c1=O [Palbociclib] (partner 0.5 µM)
Summary of the method: (§1)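 Medians of duplicate plates are given as relative viability. That measure is the nuclei count in treated wells divided by the count in vehicle wells. Counts were taken on 4× images of lung cancer cell lines in 1536-well plates, 5 days after pin-tool dosing the day after seeding with one drug alone or a fixed anchor-drug dose plus five library-drug doses (not always all listed) in √10 steps.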

4EGI-1 + Palbociclib = compound: O=C(O)C(Cc1ccccc1[N+](=O)[O-])=NNc1nc(-c2ccc(Cl)c(Cl)c2)cs1 (mixture of isomers) [4EGI-1] + CC(=O)c1c(C)c2cnc(Nc3ccc(N4CCNCC4)cn3)nc2n(C2CCCC2)c1=O [Palbociclib] (partner 0.5 µM)
Summary of the method: as §1

4EGI-1 + Pictilisib = compound: O=C(O)C(Cc1ccccc1[N+](=O)[O-])=NNc1nc(-c2ccc(Cl)c(Cl)c2)cs1 (mixture of isomers) [4EGI-1] + CS(=O)(=O)N1CCN(Cc2cc3nc(-c4cccc5[nH]ncc45)nc(N4CCOCC4)c3s2)CC1 [Pictilisib] (partner 1 µM)
Summary of the method: as §1

4EGI-1 + Olaparib = compound: O=C(O)C(Cc1ccccc1[N+](=O)[O-])=NNc1nc(-c2ccc(Cl)c(Cl)c2)cs1 (mixture of isomers) [4EGI-1] + O=C(c1cc(Cc2n[nH]c(=O)c3ccccc23)ccc1F)N1CCN(C(=O)C2CC2)CC1 [Olaparib] (partner 8 µM)
Summary of the method: as §1

| Cell Line | relative viability (XMD8-85 + Palbociclib; first compound 0.08 µM) | relative viability (XMD8-85 + Palbociclib; first compound 0.253 µM) | relative viability (XMD8-85 + Palbociclib; first compound 2.53 µM) | relative viability (XMD8-85 + Palbociclib; first compound 8 µM) | relative viability (4EGI-1 + Palbociclib; first compound 0.5 µM) | relative viability (4EGI-1 + Palbociclib; first compound 1.581 µM) | relative viability (4EGI-1 + Palbociclib; first compound 5 µM) | relative viability (4EGI-1 + Palbociclib; first compound 15.81 µM) | relative viability (4EGI-1 + Palbociclib; first compound 50 µM) | relative viability (4EGI-1 + Pictilisib; first compound 0.5 µM) | relative viability (4EGI-1 + Pictilisib; first compound 1.581 µM) | relative viability (4EGI-1 + Pictilisib; first compound 5 µM) | relative viability (4EGI-1 + Pictilisib; first compound 15.81 µM) | relative viability (4EGI-1 + Pictilisib; first compound 50 µM) | relative viability (4EGI-1 + Olaparib; first compound 0.5 µM) | relative viability (4EGI-1 + Olaparib; first compound 1.581 µM) | relative viability (4EGI-1 + Olaparib; first compound 5 µM) | relative viability (4EGI-1 + Olaparib; first compound 15.81 µM) | relative viability (4EGI-1 + Olaparib; first compound 50 µM) | relative viability (XMD8-85 + Palbociclib; first compound 0.8 µM) |
| --- | --- | --- | --- | --- | --- | --- | --- | --- | --- | --- | --- | --- | --- | --- | --- | --- | --- | --- | --- | --- |
| NCI-H1355 | 0.395 | 0.365 | 0.619 | 0.306 | 0.415 | 0.396 | 0.406 | 0.337 | 0.316 | 0.372 | 0.396 | 0.493 | 0.362 | 0.277 | 0.86 | 0.742 | 0.795 | 0.469 | 0.334 |  |
| NCI-H2170 | 0.38 | 0.374 | 0.383 | 0.332 | 0.423 | 0.363 | 0.382 | 0.392 | 0.273 | 0.316 | 0.306 | 0.319 | 0.253 | 0.22 | 0.625 | 0.541 | 0.567 | 0.36 | 0.189 | 0.436 |
| LK-2 | 0.554 | 0.778 | 0.491 | 0.668 | 0.692 |  | 0.639 | 0.803 | 0.539 | 0.621 |  | 0.696 | 0.64 | 0.541 | 0.86 |  | 0.884 | 0.654 | 0.404 | 0.592 |
| NCI-H2023 | 0.368 | 0.441 | 0.411 | 0.246 | 0.358 |  | 0.483 | 0.245 | 0.0543 | 0.275 |  | 0.207 | 0.177 | 0.0916 | 0.5 | 0.306 | 0.432 | 0.127 | 0.0742 | 0.334 |
| PC-14 | 0.552 | 0.44 | 0.404 | 0.167 | 0.559 |  | 0.659 | 0.188 | 0.0675 | 0.879 | 0.464 | 0.602 |  | 0.704 | 0.295 |  | 0.239 | 0.1 | 0.0599 | 0.596 |
| LXF-289 | 0.581 | 0.615 | 0.658 | 0.54 | 0.603 | 0.602 | 0.582 | 0.553 | 0.518 | 0.846 | 0.731 | 0.793 | 0.745 | 0.516 | 1.09 | 0.975 | 1.02 | 1.05 | 0.513 | 0.561 |
| NCI-H2009 | 0.198 | 0.208 | 0.163 | 0.154 | 0.251 | 0.243 | 0.224 | 0.196 | 0.149 | 1.08 | 0.772 | 1.06 | 0.843 | 0.169 | 0.768 | 0.63 | 0.647 | 0.421 | 0.374 | 0.184 |
| SK-LU-1 | 0.358 | 0.364 | 0.356 | 0.385 | 0.439 | 0.44 | 0.414 | 0.386 | 0.289 | 0.628 | 0.648 | 0.618 | 0.541 | 0.416 | 0.484 | 0.448 | 0.439 | 0.431 | 0.224 | 0.392 |
| NCI-H23 | 0.488 |  | 0.441 | 0.413 | 0.541 |  | 0.614 | 0.393 | 0.272 | 0.481 |  | 0.561 | 0.579 | 0.343 | 0.335 |  | 0.278 | 0.245 | 0.161 | 0.525 |
| NCI-H2405 | 0.527 |  | 0.528 | 0.509 | 0.606 |  | 0.508 | 0.55 | 0.329 | 0.471 | 0.355 | 0.547 | 0.571 | 0.518 | 0.909 |  | 0.883 | 0.866 | 0.395 | 0.543 |
| RERF-LC-KJ | 1.09 | 1.13 | 1.23 | 0.768 | 1.09 | 0.481 | 0.953 | 0.882 | 0.625 | 0.636 | 0.42 | 0.468 | 0.357 | 0.581 | 0.97 |  | 0.902 | 0.489 | 0.254 | 1.18 |
| HCC-827 | 0.505 | 0.472 | 0.505 | 0.467 | 0.521 | 0.403 | 0.565 |  | 0.5 | 1.03 | 0.993 | 0.958 | 0.298 | 0.66 | 0.572 | 0.457 | 0.703 |  | 0.406 | 0.424 |
| ABC-1 | 0.468 | 0.598 | 0.689 |  | 0.73 |  | 0.738 | 0.527 | 0.249 | 0.898 | 0.647 | 0.724 | 0.359 | 0.268 | 0.885 |  | 1.19 | 1.16 | 0.269 | 0.781 |
| NCI-H358 | 0.244 | 0.126 | 0.155 | 0.132 | 0.12 | 0.153 | 0.152 | 0.153 | 0.12 | 0.333 | 0.368 | 0.346 | 0.259 | 0.223 | 0.599 | 0.58 | 0.531 | 0.336 | 0.118 | 0.138 |
| NCI-H650 | 0.275 | 0.32 | 0.288 | 0.255 | 0.319 |  | 0.295 | 0.319 | 0.33 | 1.13 |  | 1.09 | 0.969 | 0.723 | 0.439 |  | 0.414 | 0.404 | 0.288 | 0.302 |
| SW 1573 |  | 0.387 | 0.365 | 0.192 | 0.417 | 0.354 | 0.47 | 0.257 | 0.119 | 0.549 | 0.562 | 0.461 | 0.445 | 0.47 | 0.529 | 0.317 | 0.672 | 0.213 | 0.113 | 0.431 |
| NCI-H661 | 0.401 |  | 0.443 | 0.346 | 0.454 | 0.413 | 0.385 | 0.31 | 0.284 | 0.368 | 0.344 | 0.391 | 0.336 | 0.231 | 0.765 | 0.637 | 0.584 | 0.454 | 0.336 | 0.4 |
